Calls of active or inactive are those of the source. The calls are words filed in the database; no cut-off is given here.

One assay has as its system MCF7. Kind of assay: Cytotoxicity in human MCF7 cells assessed as inhibition of cell proliferation measured by CCK-8 assay. In kind it is functional, cell-based. A general note: Tetrazolium dyes change colour on reduction, which living cells bring about.
For assay [1], the system named is PC-3M. Description: Cytotoxicity in human PC-3M cells assessed as inhibition of cell proliferation measured by CCK-8 assay. In kind it is functional, cell-based.
The next assay deals with HepG2. Kind of assay: Cytotoxicity in human HepG2 cells assessed as inhibition of cell proliferation measured by CCK-8 assay. In kind it is functional, cell-based.
The test system of the next assay is A549. Kind of assay: Cytotoxicity in human A549 cells assessed as inhibition of cell proliferation measured by CCK-8 assay. In kind it is functional, cell-based.
For the next assay, the system named is HMEC. Kind of assay: Cytotoxicity in human HMEC cells assessed as inhibition of cell proliferation measured by CCK-8 assay. The format is functional, cell-based.
Assay [2] concerns PC-3M. Kind of assay: Induction of apoptosis in human PC-3M cells assessed as early apoptotic cells at 5 nM measured after 48 hrs by Annexin V/PI staining based flow cytometry method (reference value: 1.25%). In kind it is functional. In general terms: In flow cytometry, cells or beads pass a laser one at a time.
Assay [3] concerns PC-3M. Description: Induction of apoptosis in human PC-3M cells assessed as necrotic cells at 5 nM measured after 48 hrs by Annexin V/PI staining based flow cytometry method (reference value: 0.25%). In kind it is functional.
The test system of assay [4] is PC-3M. Description: Induction of apoptosis in human PC-3M cells assessed as early apoptotic cells at 10 nM measured after 48 hrs by Annexin V/PI staining based flow cytometry method (reference value: 1.25%). In kind it is functional.
Assay [5] relates to PC-3M. Description: Induction of apoptosis in human PC-3M cells assessed as necrotic cells at 10 nM measured after 48 hrs by Annexin V/PI staining based flow cytometry method (reference value: 0.25%). The format is functional.
For assay [6], the system named is PC-3M. Kind of assay: Induction of apoptosis in human PC-3M cells assessed as late apoptotic cells at 1 nM measured after 48 hrs by Annexin V/PI staining based flow cytometry method (reference value: 2.88%). The format is functional.
For assay [7], the system named is PC-3M. Description: Induction of apoptosis in human PC-3M cells assessed as viable cells at 5 nM measured after 48 hrs by Annexin V/PI staining based flow cytometry method (reference value: 95.6%). In kind it is functional. Particulars: read-out: Activity.
Assay [8] has as its system PC-3M. Kind of assay: Induction of apoptosis in human PC-3M cells assessed as viable cells at 1 nM measured after 48 hrs by Annexin V/PI staining based flow cytometry method (reference value: 95.6%). To be noted: read-out: Activity. In kind it is functional.
The subject of assay [9] is PC-3M. Description: Induction of apoptosis in human PC-3M cells assessed as late apoptotic cells at 5 nM measured after 48 hrs by Annexin V/PI staining based flow cytometry method (reference value: 2.88%). The format is functional.
Assay [10] has as its system PC-3M. Kind of assay: Induction of apoptosis in human PC-3M cells assessed as late apoptotic cells at 10 nM measured after 48 hrs by Annexin V/PI staining based flow cytometry method (reference value: 2.88%). In kind it is functional.
For assay [11], the system named is PC-3M. Kind of assay: Induction of apoptosis in human PC-3M cells assessed as viable cells at 10 nM measured after 48 hrs by Annexin V/PI staining based flow cytometry method (reference value: 95.6%). To be noted: read-out: Activity. In kind it is functional.
Assay [12] deals with PC-3M. Description: Antiproliferative activity against human PC-3M cells assessed as inhibition of cell proliferation at 1 nM measured after 9 days by Crystal violet staining based colony formation assay. In kind it is functional. Particulars: time 9.0 day.
The test system of assay [13] is PC-3M. Description: Induction of apoptosis in human PC-3M cells assessed as necrotic cells at 1 nM measured after 48 hrs by Annexin V/PI staining based flow cytometry method (reference value: 0.25%). The format is functional.
Assay [14] concerns PC-3M. Description: Induction of apoptosis in human PC-3M cells assessed as early apoptotic cells at 1 nM measured after 48 hrs by Annexin V/PI staining based flow cytometry method (reference value: 1.25%). The format is functional.

`CCCCCCCCCCCCCC(=O)O[C@H]1c2cc3c(cc2[C@@H](c2cc(OC)c(OC)c(OC)c2)[C@H]2C(=O)OC[C@@H]21)OCO3`: the IC50 (in general, the point on the concentration scale where inhibition reaches its midpoint) was > 200 µM with MCF7; 1.73 µM in the assay with PC-3M [1]; 88.7 µM in the assay with HepG2; 1.07 µM with A549; 2.75 µM in the assay with HMEC.

Consider `COc1cc([C@@H]2c3cc4c(cc3[C@H](O)[C@H]3COC(=O)[C@H]23)OCO4)cc(OC)c1OC` [PODOFILOX], for which the Activity in the assay on PC-3M [2] is given as 3.17%; in the assay with PC-3M [3], 0.17%; with PC-3M [4], 3.31%; in the assay on PC-3M [5], 0.11%; in the assay with PC-3M [6], 3.78%; in the assay on PC-3M [9], 9.11%. Moreover, the Activity in the assay on PC-3M [10] turned out to be 20.9%; in the assay on PC-3M [13], 0.083%; in the assay with PC-3M [14] it was 1.71%. Moreover, the IC50 with MCF7 is > 200 µM; with PC-3M [1], 0.235 µM; with HepG2, > 200 µM; in the assay on A549 it was 0.00537 µM; in the assay with HMEC it was 1.34 µM. Moreover, in the assay with PC-3M [7], the viability at 0.005 µM was determined as 87.6%. Besides, the viability at 0.001 µM in the assay with PC-3M [8] worked out at 94.4%. In addition, in the assay with PC-3M [11], the viability at 0.01 µM turned out to be 75.7%. Further, the outcome in the assay on PC-3M [12] was inactive.

Take `COc1cc([C@@H]2c3cc4c(cc3[C@H](OC(=O)[C@@H]3CCCN3C(=O)OC(C)(C)C)[C@H]3COC(=O)[C@H]23)OCO4)cc(OC)c1OC`: the IC50 stood at 124 µM in the assay with MCF7; 1.73 µM in the assay on PC-3M [1]; 50.8 µM in the assay with HepG2; 0.6 µM with A549; 3.23 µM with HMEC.

In the case of `COc1cc([C@@H]2c3cc4c(cc3[C@H](OC(=O)c3ccncc3)[C@H]3COC(=O)[C@H]23)OCO4)cc(OC)c1OC` [4-O-PODOPHYLLOTOXINYL-ISONICOTINATE], the IC50 in the assay on MCF7 is > 200 µM; with PC-3M [1] it was 0.0926 µM; in the assay on HepG2, 188 µM; in the assay on A549, 0.0163 µM; in the assay with HMEC, 3.72 µM.

Take `C/C=C/C(=O)O[C@H]1c2cc3c(cc2[C@@H](c2cc(OC)c(OC)c(OC)c2)[C@H]2C(=O)OC[C@@H]21)OCO3`: the concentration for half-maximal inhibition (IC50) in the assay with MCF7 was determined as 80.9 µM; in the assay on PC-3M [1], 0.0124 µM; in the assay on HepG2 it was 109 µM; in the assay on A549 it was 0.0402 µM; with HMEC it was 0.0795 µM.

For `COc1cc([C@@H]2c3cc4c(cc3[C@H](OC(=O)[C@@H](NC(=O)OC(C)(C)C)C(C)C)[C@H]3COC(=O)[C@H]23)OCO4)cc(OC)c1OC`, the IC50 with MCF7 was 89.1 µM; in the assay with PC-3M [1], 2.52 µM; with HepG2, 10.9 µM; with A549, 11.2 µM; in the assay with HMEC, 2.44 µM.

Consider `CCCCCCCCCCCCCCCCCC(=O)O[C@H]1c2cc3c(cc2[C@@H](c2cc(OC)c(OC)c(OC)c2)[C@H]2C(=O)OC[C@@H]21)OCO3`, for which the IC50 in the assay with MCF7 was > 200 µM; in the assay with PC-3M [1], 2.6 µM; with HepG2 it was 141 µM; in the assay on A549 it was 7.33 µM; in the assay on HMEC it was 3.07 µM.

With `CC[C@H](C)[C@H](NC(=O)OC(C)(C)C)C(=O)O[C@H]1c2cc3c(cc2[C@@H](c2cc(OC)c(OC)c(OC)c2)[C@H]2C(=O)OC[C@@H]21)OCO3`, the 50% inhibitory concentration (IC50) in the assay with MCF7 is 69.9 µM; in the assay on PC-3M [1], 1.07 µM; in the assay on HepG2, 0.866 µM; in the assay on A549, 7.96 µM; with HMEC, 4.48 µM.

Consider `COc1cc([C@@H]2c3cc4c(cc3[C@H](OC(=O)c3sccc3Cl)[C@H]3COC(=O)[C@H]23)OCO4)cc(OC)c1OC`, for which the IC50 in the assay with MCF7 is > 200 µM; in the assay on PC-3M [1], 0.965 µM; in the assay with HepG2, 149 µM; in the assay on A549, 0.155 µM; in the assay with HMEC, 0.116 µM.

Regarding `COc1cc([C@@H]2c3cc4c(cc3[C@H](OC(=O)CN(C)C(=O)OC(C)(C)C)[C@H]3COC(=O)[C@H]23)OCO4)cc(OC)c1OC`, the IC50 with PC-3M [1] was 0.0132 µM; with A549 it was 0.043 µM; with HMEC, 27.8 µM.

Consider `C/C=C/C=C/C(=O)O[C@H]1c2cc3c(cc2[C@@H](c2cc(OC)c(OC)c(OC)c2)[C@H]2C(=O)OC[C@@H]21)OCO3`, for which the IC50 was 127 µM with MCF7; 1.09 µM in the assay with PC-3M [1]; 2.34 µM with HepG2; 0.143 µM in the assay with A549; 0.424 µM with HMEC.

Regarding `COc1cc([C@@H]2c3cc4c(cc3[C@H](OC(=O)[C@H](CCSC)NC(=O)OC(C)(C)C)[C@H]3COC(=O)[C@H]23)OCO4)cc(OC)c1OC`, the 50% inhibitory concentration (IC50) was 93.1 µM with MCF7; 0.00511 µM in the assay on PC-3M [1]; 51 µM with HepG2; 1.03 µM in the assay on A549; 2.6 µM in the assay with HMEC.

Regarding `COc1cc([C@@H]2c3cc4c(cc3[C@H](OC(=O)[C@H](Cc3ccccc3)NC(=O)OC(C)(C)C)[C@H]3COC(=O)[C@H]23)OCO4)cc(OC)c1OC`, the 50% inhibitory concentration (IC50) in the assay on MCF7 was 72.4 µM; in the assay on PC-3M [1] it was 0.0201 µM; with HepG2 it was > 200 µM; in the assay on A549 it was 0.0234 µM; with HMEC it was 2.46 µM.

Take `CCCCCCCCCCCC(=O)O[C@H]1c2cc3c(cc2[C@@H](c2cc(OC)c(OC)c(OC)c2)[C@H]2C(=O)OC[C@@H]21)OCO3`: the IC50 is > 200 µM in the assay with MCF7; 1.25 µM in the assay on PC-3M [1]; 53.1 µM in the assay with HepG2; 0.539 µM in the assay on A549; 0.936 µM in the assay with HMEC.

With `COc1cc([C@@H]2c3cc4c(cc3[C@H](OC(=O)[C@H](Cc3c[nH]c5ccccc35)NC(=O)OC(C)(C)C)[C@H]3COC(=O)[C@H]23)OCO4)cc(OC)c1OC`, the 50% inhibitory concentration (IC50) with MCF7 is > 200 µM; in the assay with PC-3M [1], 0.00607 µM; with HepG2, > 200 µM; with A549, 0.315 µM; in the assay on HMEC it was 1.8 µM.

For the molecule `COc1cc([C@@H]2c3cc4c(cc3[C@H](OC(=O)c3cccs3)[C@H]3COC(=O)[C@H]23)OCO4)cc(OC)c1OC`, the IC50 in the assay on MCF7 amounted to 26.5 µM; in the assay with PC-3M [1] it was 0.77 µM; with HepG2, 26.9 µM; in the assay with A549 it was 0.0684 µM; in the assay with HMEC it was 0.672 µM.

For `CCCCCCCCCCCCCCCC(=O)O[C@H]1c2cc3c(cc2[C@@H](c2cc(OC)c(OC)c(OC)c2)[C@H]2C(=O)OC[C@@H]21)OCO3`, the 50% inhibitory concentration (IC50) in the assay with MCF7 was > 200 µM; in the assay with PC-3M [1], 2.3 µM; in the assay on HepG2, 117 µM; in the assay with A549, 4.59 µM; in the assay with HMEC, 5.38 µM.

Consider `COc1cc([C@@H]2c3cc4c(cc3[C@H](OC(=O)c3ccc(Br)s3)[C@H]3COC(=O)[C@H]23)OCO4)cc(OC)c1OC`, for which the IC50 was > 200 µM with MCF7; 0.619 µM in the assay on PC-3M [1]; 33.9 µM with HepG2; 0.504 µM in the assay with A549; 1.77 µM with HMEC.

For the molecule `COc1cc([C@@H]2c3cc4c(cc3[C@H](OC(=O)[C@H](CC(C)C)NC(=O)OC(C)(C)C)[C@H]3COC(=O)[C@H]23)OCO4)cc(OC)c1OC`, the IC50 turned out to be 140 µM with MCF7; 0.00898 µM in the assay with PC-3M [1]; 60.3 µM in the assay on HepG2; 6.44 µM in the assay with A549; 2.37 µM in the assay on HMEC.

For `COc1cc([C@@H]2c3cc4c(cc3[C@H](OC(=O)[C@H](C)NC(=O)OC(C)(C)C)[C@H]3COC(=O)[C@H]23)OCO4)cc(OC)c1OC`, the concentration for half-maximal inhibition (IC50) amounted to 40.7 µM in the assay with MCF7; 1.17 µM in the assay on PC-3M [1]; 84.9 µM in the assay with HepG2; 0.0284 µM in the assay with A549; 8.42 µM with HMEC.

(Values after ChEMBL document CHEMBL4811295, “The ester derivatives obtained by C-ring modification of podophyllotoxin induce apoptosis and inhibited proliferation in PC-3M cells via down-regulation of PI3K/Akt signaling pathway” (Bioorg Med Chem Lett, 2021).)
